Literature values in patent publication US7041655B1, “Capillary membrane stabilization and reduction of tissue injury through use of IV biodegradable macromolecules with antioxidants and/or other chemicals” (priority 1996, dated 2006).

Tests used:
[1] = used for fluid replacement therapy
[2] = intravenous infusion
[3] = in 24 hours; molecules below 50,000 daltons rapidly eliminated by renal excretion

Row | part of a given total dose appearing in the urine [3] | Substance | toxic reactions observed [1] | duration of improved hemodynamic status of the subject [2] | time over which the expansion of plasma volume decreases ([2]; expansion slightly in excess of the volume infused)
1 |  | dextran | Few toxic reactions |  | 
2 | approximately 40% | hydroxyethyl starch | Few toxic reactions | ≥ 24 h | 24 to 36 h
